Laboratory results: PubChem BioAssay AID258 (DTP/NCI, 2004)
Values joined by “and” are separate entries in the source; they are usually repeats but may differ in a detail not shown here. Equal entries are not always repeated. Inconclusive results and toxic doses are left out.

Tested on: CD2F1 mice, L1210 leukemia sc, survival T/C
Experiment: NCI In Vivo Anticancer Drug Screen. Data for tumor model L1210 Leukemia (subcutaneous) in CD2F1 (CDF1) mice
Conditions: higher = longer survival
Procedure, shortened: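 T/C ratio: treated-group survival or tumor size over vehicle-control group measurement, in mice carrying transplanted tumors.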

Q: How did the T/C (endpoint: mean survival time, dose: 1.08 mg/kg/injection, schedule: Q01DX009 (sc), vehicle: other) turn out when `CN(Cc1cnc2nc(N)nc(N)c2n1)c1ccc(C(=O)N[C@@H](CCC(=O)O)C(=O)O)cc1` was run?
A: 170 % of control

Q: What about the T/C (endpoint: mean survival time, dose: 1.8 mg/kg/injection, schedule: Q01DX009 (sc), vehicle: other) of the same compound?
A: 158 % of control

Q: What about the T/C (endpoint: mean survival time, dose: 3.0 mg/kg/injection, schedule: Q01DX009 (sc), vehicle: other) of the same compound?
A: 168 % of control

Q: What about the T/C (endpoint: mean survival time, dose: 5.0 mg/kg/injection, schedule: Q01DX017 (sc), vehicle: other) of the same compound?
A: 124 % of control

Q: What about the T/C (endpoint: median survival time, dose: 0.08 mg/kg/injection, schedule: Q## X Z (sc), vehicle: other) of the same compound?
A: 155 % of control

Q: What about the T/C (endpoint: median survival time, dose: 0.1 mg/kg/injection, schedule: Q#A X Z (oral), vehicle: other) of the same compound?
A: 104 % of control

Q: And the T/C (endpoint: median survival time, dose: 0.1 mg/kg/injection, schedule: Q#A X Z (sc), vehicle: other)?
A: 122 % of control

Q: What about the T/C (endpoint: median survival time, dose: 0.14 mg/kg/injection, schedule: Q## X Z (sc), vehicle: other) of the same compound?
A: 155 % of control

Q: What about the T/C (endpoint: median survival time, dose: 0.16 mg/kg/injection, schedule: Q#A X Z (oral), vehicle: other) of the same compound?
A: 109 % of control

Q: And the T/C (endpoint: median survival time, dose: 0.23 mg/kg/injection, schedule: Q#A X Z (sc), vehicle: other)?
A: 122 % of control

Q: What about the T/C (endpoint: median survival time, dose: 0.25 mg/kg/injection, schedule: Q01DX Z (sc), vehicle: other) of the same compound?
A: 112 % of control and 116 % of control

Q: And the T/C (endpoint: median survival time, dose: 0.27 mg/kg/injection, schedule: Q01DX Z (oral), vehicle: other)?
A: 109 % of control

Q: What about the T/C (endpoint: median survival time, dose: 0.27 mg/kg/injection, schedule: Q#A X Z (oral), vehicle: other) of the same compound?
A: 122 % of control

Q: What about the T/C (endpoint: median survival time, dose: 0.3 mg/kg/injection, schedule: Q01DX Z (sc), vehicle: sodium bicarbonate) of the same compound?
A: 111 % of control

Q: And the T/C (endpoint: median survival time, dose: 0.38 mg/kg/injection, schedule: Q01DX009 (ip), vehicle: sodium bicarbonate)?
A: 108 % of control

Q: And the T/C (endpoint: median survival time, dose: 0.39 mg/kg/injection, schedule: Q01DX Z (ip), vehicle: other)?
A: 115 % of control

Q: What about the T/C (endpoint: median survival time, dose: 0.39 mg/kg/injection, schedule: Q01DX Z (iv), vehicle: other) of the same compound?
A: 105 % of control

Q: What about the T/C (endpoint: median survival time, dose: 0.39 mg/kg/injection, schedule: Q01DX Z (oral), vehicle: other) of the same compound?
A: 100 % of control

Q: And the T/C (endpoint: median survival time, dose: 0.39 mg/kg/injection, schedule: Q02DX Z (sc), vehicle: other)?
A: 111 % of control

Q: And the T/C (endpoint: median survival time, dose: 0.45 mg/kg/injection, schedule: Q01DX Z (oral), vehicle: other)?
A: 100 % of control

Q: What about the T/C (endpoint: median survival time, dose: 0.45 mg/kg/injection, schedule: Q#A X Z (sc), vehicle: other) of the same compound?
A: 159 % of control

Q: And the T/C (endpoint: median survival time, dose: 0.47 mg/kg/injection, schedule: Q01DX Z (oral), vehicle: other)?
A: 111 % of control

Q: And the T/C (endpoint: median survival time, dose: 0.48 mg/kg/injection, schedule: Q01DX Z (oral), vehicle: other)?
A: 100 % of control

Q: What about the T/C (endpoint: median survival time, dose: 0.5 mg/kg/injection, schedule: Q01DX009 (ip), vehicle: sodium bicarbonate) of the same compound?
A: 112 % of control

Q: And the T/C (endpoint: median survival time, dose: 0.62 mg/kg/injection, schedule: Q01DX Z (sc), vehicle: other)?
A: 160 % of control

Q: What about the T/C (endpoint: median survival time, dose: 0.65 mg/kg/injection, schedule: Q01DX009 (sc), vehicle: other) of the same compound?
A: 152 % of control

Q: What about the T/C (endpoint: median survival time, dose: 0.65 mg/kg/injection, schedule: Q01DX009 (sc), vehicle: sodium bicarbonate) of the same compound?
A: 150 % of control

Q: And the T/C (endpoint: median survival time, dose: 0.65 mg/kg/injection, schedule: Q01DX Z (iv), vehicle: other)?
A: 111 % of control

Q: And the T/C (endpoint: median survival time, dose: 0.65 mg/kg/injection, schedule: Q01DX Z (oral), vehicle: other)?
A: 105 % of control

Q: What about the T/C (endpoint: median survival time, dose: 0.65 mg/kg/injection, schedule: Q02DX Z (sc), vehicle: other) of the same compound?
A: 105 % of control

Q: What about the T/C (endpoint: median survival time, dose: 0.65 mg/kg/injection, schedule: Q## X Z (sc), vehicle: other) of the same compound?
A: 122 % of control

Q: What about the T/C (endpoint: median survival time, dose: 0.65 mg/kg/injection, schedule: Q#A X Z (sc), vehicle: other) of the same compound?
A: 161 % of control

Q: And the T/C (endpoint: median survival time, dose: 0.75 mg/kg/injection, schedule: Q01DX009 (ip), vehicle: sodium bicarbonate)?
A: 113 % of control

Q: And the T/C (endpoint: median survival time, dose: 0.75 mg/kg/injection, schedule: Q01DX Z (ip), vehicle: water)?
A: 175 % of control

Q: What about the T/C (endpoint: median survival time, dose: 0.76 mg/kg/injection, schedule: Q01DX Z (oral), vehicle: other) of the same compound?
A: 122 % of control

Q: And the T/C (endpoint: median survival time, dose: 0.76 mg/kg/injection, schedule: Q#A X Z (oral), vehicle: other)?
A: 150 % of control

Q: And the T/C (endpoint: median survival time, dose: 0.79 mg/kg/injection, schedule: Q01DX Z (oral), vehicle: other)?
A: 105 % of control

Q: And the T/C (endpoint: median survival time, dose: 1.08 mg/kg/injection, schedule: Q01DX009 (sc), vehicle: sodium bicarbonate)?
A: 171 % of control

Q: What about the T/C (endpoint: median survival time, dose: 1.08 mg/kg/injection, schedule: Q01DX Z (oral), vehicle: other) of the same compound?
A: 110 % of control

Q: What about the T/C (endpoint: median survival time, dose: 1.25 mg/kg/injection, schedule: Q01DX Z (sc), vehicle: other) of the same compound?
A: 180 % of control

Q: And the T/C (endpoint: median survival time, dose: 1.26 mg/kg/injection, schedule: Q01DX Z (oral), vehicle: other)?
A: 168 % of control and 181 % of control

Q: And the T/C (endpoint: median survival time, dose: 1.26 mg/kg/injection, schedule: Q01DX Z (sc), vehicle: other)?
A: 181 % of control

Q: And the T/C (endpoint: median survival time, dose: 1.26 mg/kg/injection, schedule: Q#A X Z (oral), vehicle: other)?
A: 118 % of control

Q: And the T/C (endpoint: median survival time, dose: 1.3 mg/kg/injection, schedule: Q01DX Z (oral), vehicle: other)?
A: 166 % of control

Q: What about the T/C (endpoint: median survival time, dose: 1.31 mg/kg/injection, schedule: Q01DX Z (oral), vehicle: other) of the same compound?
A: 111 % of control
